Data on five compounds can be found in ChEMBL document CHEMBL4725403, “Improved design of peptides exhibiting angiogenic activities for clinical applications” (Bioorg Med Chem, 2020).

Active and inactive are the calls of the source. No cut-off for these calls is given here. Where a SMILES comes first, the peptide text is derived from it. Bridges are numbered along the chain shown (N, C = ends). [ ]: non-standard residue; d: D form. AEEA = NCCOCCOCC(=O)O

The nature of data set [1]: Stability of compound in HUVEC cell lysates assessed as parent compound remaining after 6 hrs by HPLC-MS. Format: ADME, subcellular. The conditions noted are these: human; for Stabilty: huvec, 6 h.
Data set [2] can be described thus: Stability of compound in human serum assessed as parent compound remaining after 6 hrs by HPLC-MS. Type of data set: ADME, cell-free. Conditions: for Stabilty: 6 h.
Data set [3] concerns HUVEC. Description: Induction of angiogenesis in HUVEC assessed as tube formation at 2 ug/ml after 2 hrs by inverted microscopy. Type of data set: functional. Conditions: Homo sapiens, dose 2.0 µg/ml.
Data set [4] deals with HUVEC. As to the kind of experiment: Induction of angiogenesis in HUVEC assessed as tube formation at 2 ug/ml after 18 hrs by inverted microscopy. The conditions noted are these: Homo sapiens, dose 2.0 µg/ml. Format: functional.
Data set [5] deals with HUVEC. As to the kind of experiment: Induction of angiogenesis in HUVEC assessed as tube formation at 2 ug/ml upto 24 hrs by inverted microscopy. Type of data set: functional. The conditions noted are these: Homo sapiens, dose 2.0 µg/ml.

As to `CC(C)C[C@@H]1NC(=O)CNC(=O)[C@H](Cc2ccccc2)NC(=O)[C@H](C(C)C)NC(=O)[C@H](C(C)C)NC(=O)[C@H](CO)NC(=O)COCCOCCNC(=O)[C@H](N)CSSC[C@H](C(N)=O)NC(=O)CNC(=O)[C@H](CCCNC(=N)N)NC1=O`, the Stabilty entry in data set [1] and in data set [2] was “Stable” in each case. The outcome in data set [3] and in data set [4] was Active.
Regarding `CC(C)C[C@@H]1NC(=O)CNC(=O)[C@H](Cc2ccccc2)NC(=O)[C@H](C(C)C)NC(=O)[C@H](C(C)C)NC(=O)[C@H](CO)NC(=O)COCCOCCNC(=O)[C@@H](N)CSSC[C@@H](C(N)=O)NC(=O)CNC(=O)[C@H](CCCNC(=N)N)NC1=O`, the Stabilty result in data set [1] and in data set [2] was “Stable” each time. Besides, the outcome in data set [3], in data set [4] and in data set [5] was Active.
On to `CC(C)C[C@H](NC(=O)CNC(=O)[C@H](Cc1ccccc1)NC(=O)[C@@H](NC(=O)[C@@H](NC(=O)[C@H](CO)NC(=O)COCCOCCN)C(C)C)C(C)C)C(=O)N[C@@H](CCCNC(=N)N)C(N)=O` (H-[AEEA]SVVFGLR-NH2), for which the Stabilty result in data set [1] was “Stable”.
`CC(C)C[C@@H]1NC(=O)CNC(=O)[C@H](Cc2ccccc2)NC(=O)[C@H](C(C)C)NC(=O)[C@H](C(C)C)NC(=O)[C@H](CO)NC(=O)COCCOCCNC(=O)CC[C@@H](C(N)=O)NC(=O)[C@H](CCCNC(=N)N)NC1=O` ([AEEA]SVVFGLRE-NH2; lactam N-9): the Stabilty result in data set [1] is recorded as “Unstable”. In addition, in data set [2] (read-out: Stabilty), the remaining at 6 h is 80%. Further, the outcome in data set [3] and in data set [4] was Active.
In the case of H-SVVFGLR-NH2, the remaining at 6 h in data set [1] (HUVEC cell lysates, read-out: Stabilty) came to 50%. Besides, the Stabilty result in data set [2] is listed as “Unstable”. Further, the result in data set [3] and in data set [4] was Active.
